Patent US9371280B2, “Substituted pyrrolidine-2-carboxamides” (Hoffmann-La Roche Inc., priority 2012, dated 2016)
Structures can show the parent of a compound that is named as a salt.

Target: interaction between p53 and MDM2 proteins (recombinant GST-tagged MDM2) (Homo sapiens, UniProt Q00987)
Test: HTRF assay of inhibition of the p53-MDM2 interaction (GST-MDM2 / biotinylated p53 peptide);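 also: FRET read-out from Eu-labelled anti-GST antibody to streptavidin-APC, with 90 nM N-terminally biotinylated p53 peptide and 160 ng/ml GST-MDM2 in Tris-borate saline containing 1 mM DTT, 384-well format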
Type: binding
Conditions: not given

Sequence of interaction between p53 and MDM2 proteins (recombinant GST-tagged MDM2) (Q00987 whole entry): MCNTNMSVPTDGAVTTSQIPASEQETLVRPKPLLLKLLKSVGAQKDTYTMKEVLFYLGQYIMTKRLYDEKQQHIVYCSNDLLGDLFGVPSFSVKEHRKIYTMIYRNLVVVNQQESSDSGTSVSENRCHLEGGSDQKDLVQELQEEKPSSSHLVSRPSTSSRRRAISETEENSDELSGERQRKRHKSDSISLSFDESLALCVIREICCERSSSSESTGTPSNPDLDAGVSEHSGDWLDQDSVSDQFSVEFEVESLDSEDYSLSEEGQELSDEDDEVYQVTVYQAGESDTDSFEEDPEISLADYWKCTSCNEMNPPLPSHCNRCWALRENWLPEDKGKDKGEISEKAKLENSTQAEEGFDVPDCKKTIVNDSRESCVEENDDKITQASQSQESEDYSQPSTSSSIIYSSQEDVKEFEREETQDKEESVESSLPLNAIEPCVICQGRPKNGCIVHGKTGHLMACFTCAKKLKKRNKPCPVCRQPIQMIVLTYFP

Row | Structure (SMILES) | IC50
1 | COc1cc(C(=O)OCCCC(=O)O)ccc1NC(=O)[C@@H]1N[C@@H](CC(C)(C)C)[C@](C#N)(c2ccc(Cl)cc2F)[C@H]1c1cccc(Cl)c1F [Example 36, 4-{[(2R,3S,4R,5S)-4-(4-Chloro-2-fluoro-phenyl)-3-(3-chloro-2-fluoro-phenyl)-4-cyano-5-(2,2-dimethyl-propyl)-pyrrolidine-2-carbonyl]-amino}-3-methoxy-benzoic acid 3-carboxy-propyl ester] | 4.98 nM

Same assay, conditions: HTRF, 0.02% BSA, 37° C. 1 h

Row | Structure (SMILES) | IC50
2 | COc1cc(C(=O)OCC(=O)N(C)C)ccc1NC(=O)[C@@H]1N[C@@H](CC(C)(C)C)[C@](C#N)(c2ccc(Cl)cc2F)[C@H]1c1cccc(Cl)c1F [Example 24, 4-{[(2R,3S,4R,5S)-4-(4-Chloro-2-fluoro-phenyl)-3-(3-chloro-2-fluoro-phenyl)-4-cyano-5-(2,2-dimethyl-propyl)-pyrrolidine-2-carbonyl]-amino}-3-methoxy-benzoic acid dimethylcarbamoylmethyl ester, hydrochloride] | 13.9 nM
3 | COc1cc(C(=O)OCC(C)N2CCOCC2)ccc1NC(=O)[C@@H]1N[C@@H](CC(C)(C)C)[C@](C#N)(c2ccc(Cl)cc2F)[C@H]1c1cccc(Cl)c1F (stereo partly drawn) [Example 25, 4-{[(2R,3S,4R,5S)-4-(4-Chloro-2-fluoro-phenyl)-3-(3-chloro-2-fluoro-phenyl)-4-cyano-5-(2,2-dimethyl-propyl)-pyrrolidine-2-carbonyl]-amino}-3-methoxy-benzoic acid 2-morpholin-4-yl-propyl ester, hydrochloride] | 15.5 nM
4 | COc1cc(C(=O)NCCN2CCN(C)CC2)ccc1NC(=O)[C@@H]1N[C@@H](CC(C)(C)C)[C@](C#N)(c2ccc(Cl)cc2F)[C@H]1c1cccc(Cl)c1F [Example 26, (2R,3S,4R,5S)-4-(4-Chloro-2-fluoro-phenyl)-3-(3-chloro-2-fluoro-phenyl)-4-cyano-5-(2,2-dimethyl-propyl)-pyrrolidine-2-carboxylic acid {2-methoxy-4-[2-(4-methyl-piperazin-1-yl)-ethylcarbamoyl]-phenyl}-amide, hydrochloride] | 8.67 nM
5 | COc1cc(C(=O)N(C)C)ccc1NC(=O)[C@@H]1N[C@@H](CC(C)(C)C)[C@](C#N)(c2ccc(Cl)cc2F)[C@H]1c1cccc(Cl)c1F [Example 27, (2R,3S,4R,5S)-4-(4-Chloro-2-fluoro-phenyl)-3-(3-chloro-2-fluoro-phenyl)-4-cyano-5-(2,2-dimethyl-propyl)-pyrrolidine-2-carboxylic acid (4-dimethylcarbamoyl-2-methoxy-phenyl)-amide] | 12.9 nM
6 | COc1cc(C(=O)OC[C@H](O)[C@@H](O)[C@H](O)[C@H](O)CO)ccc1NC(=O)[C@@H]1N[C@@H](CC(C)(C)C)[C@](C#N)(c2ccc(Cl)cc2F)[C@H]1c1cccc(Cl)c1F [Example 28, 4-{[(2R,3S,4R,5S)-4-(4-Chloro-2-fluoro-phenyl)-3-(3-chloro-2-fluoro-phenyl)-4-cyano-5-(2,2-dimethyl-propyl)-pyrrolidine-2-carbonyl]-amino}-3-methoxy-benzoic acid (2S,3R,4R,5R)-2,3,4,5,6-pentahydroxy-hexyl ester] | 6.02 nM
7 | COc1cc(C(=O)OCCOC(=O)CNC(=O)OC(C)(C)C)ccc1NC(=O)[C@@H]1N[C@@H](CC(C)(C)C)[C@](C#N)(c2ccc(Cl)cc2F)[C@H]1c1cccc(Cl)c1F [Example 29, 4-{[(2R,3S,4R,5S)-4-(4-Chloro-2-fluoro-phenyl)-3-(3-chloro-2-fluoro-phenyl)-4-cyano-5-(2,2-dimethyl-propyl)-pyrrolidine-2-carbonyl]-amino}-3-methoxy-benzoic acid 2-(2-tert-butoxycarbonylamino-acetoxy)-ethyl ester] | 16.7 nM
8 | COc1cc(C(=O)OCCOC(=O)CN)ccc1NC(=O)[C@@H]1N[C@@H](CC(C)(C)C)[C@](C#N)(c2ccc(Cl)cc2F)[C@H]1c1cccc(Cl)c1F [Example 30, 4-{[(2R,3S,4R,5S)-4-(4-Chloro-2-fluoro-phenyl)-3-(3-chloro-2-fluoro-phenyl)-4-cyano-5-(2,2-dimethyl-propyl)-pyrrolidine-2-carbonyl]-amino}-3-methoxy-benzoic acid 2-(2-amino-acetoxy)-ethyl ester] | 17.2 nM
9 | COc1cc(C(=O)OCCOC(=O)CN(C)C(=O)OC(C)(C)C)ccc1NC(=O)[C@@H]1N[C@@H](CC(C)(C)C)[C@](C#N)(c2ccc(Cl)cc2F)[C@H]1c1cccc(Cl)c1F [Example 31, 4-{[(2R,3S,4R,5S)-4-(4-Chloro-2-fluoro-phenyl)-3-(3-chloro-2-fluoro-phenyl)-4-cyano-5-(2,2-dimethyl-propyl)-pyrrolidine-2-carbonyl]-amino}-3-methoxy-benzoic acid 2-[2-(tert-butoxycarbonyl-methyl-amino)-acetoxy]-ethyl ester] | 13.7 nM
10 | CNCC(=O)OCCOC(=O)c1ccc(NC(=O)[C@@H]2N[C@@H](CC(C)(C)C)[C@](C#N)(c3ccc(Cl)cc3F)[C@H]2c2cccc(Cl)c2F)c(OC)c1 [Example 32, 4-{[(2R,3S,4R,5S)-4-(4-Chloro-2-fluoro-phenyl)-3-(3-chloro-2-fluoro-phenyl)-4-cyano-5-(2,2-dimethyl-propyl)-pyrrolidine-2-carbonyl]-amino}-3-methoxy-benzoic acid 2-(2-methylamino-acetoxy)-ethyl ester, hydrochloride] | 16.4 nM
11 | COc1cc(C(=O)OCCOC(=O)[C@@H](NC(=O)[C@H](C)N(C)C(=O)OC(C)(C)C)C(C)C)ccc1NC(=O)[C@@H]1N[C@@H](CC(C)(C)C)[C@](C#N)(c2ccc(Cl)cc2F)[C@H]1c1cccc(Cl)c1F [Example 33, 4-{[(2R,3S,4R,5S)-4-(4-Chloro-2-fluoro-phenyl)-3-(3-chloro-2-fluoro-phenyl)-4-cyano-5-(2,2-dimethyl-propyl)-pyrrolidine-2-carbonyl]-amino}-3-methoxy-benzoic acid 2-[(S)-3-methyl-2-((S)-2-tert-butoxycarbonyl-methylamino-propionylamino)-butyryloxy]-ethyl ester] | 19.9 nM
12 | COC(=O)COC(=O)c1ccc(NC(=O)[C@@H]2N[C@@H](CC(C)(C)C)[C@](C#N)(c3ccc(Cl)cc3F)[C@H]2c2cccc(Cl)c2F)c(OC)c1 [Example 35, 4-{[(2R,3S,4R,5S)-4-(4-Chloro-2-fluoro-phenyl)-3-(3-chloro-2-fluoro-phenyl)-4-cyano-5-(2,2-dimethyl-propyl)-pyrrolidine-2-carbonyl]-amino}-3-methoxy-benzoic acid methoxycarbonylmethyl ester] | 12.5 nM
13 | COc1cc(C(=O)OCCC(=O)OC(C)(C)C)ccc1NC(=O)[C@@H]1N[C@@H](CC(C)(C)C)[C@](C#N)(c2ccc(Cl)cc2F)[C@H]1c1cccc(Cl)c1F [Example 37, 4-{[(2R,3S,4R,5S)-4-(4-Chloro-2-fluoro-phenyl)-3-(3-chloro-2-fluoro-phenyl)-4-cyano-5-(2,2-dimethyl-propyl)-pyrrolidine-2-carbonyl]-amino}-3-methoxy-benzoic acid 2-tert-butoxycarbonyl-ethyl ester] | 16 nM
14 | COc1cc(C(=O)OCCC(=O)O)ccc1NC(=O)[C@@H]1N[C@@H](CC(C)(C)C)[C@](C#N)(c2ccc(Cl)cc2F)[C@H]1c1cccc(Cl)c1F [Example 38, 4-{[(2R,3S,4R,5S)-4-(4-Chloro-2-fluoro-phenyl)-3-(3-chloro-2-fluoro-phenyl)-4-cyano-5-(2,2-dimethyl-propyl)-pyrrolidine-2-carbonyl]-amino}-3-methoxy-benzoic acid 2-carboxy-ethyl ester] | 10.2 nM
